This note sets out measurements from US12545637B2, “Extrahepatic targeted cationic lipid compound with high efficiency and low toxicity and its composition” (BEIJING YOUCARE KECHUANG PHARMACEUTICAL TECHNOLOGY CO., LTD., priority 2023, dated 2026).

Series [1] is described as follows: Particle size and polydispersity index (PDI) of lipid nanoparticles by dynamic light scattering. In kind it is physicochemical. The conditions noted are these: for PDI: LNP formulation of the cationic lipid, 25° C.; for Particle size: LNP formulation of the cationic lipid/DSPC/cholesterol/DMG-PEG2000 49:10:39.5:1.5, 25° C. As to the method: The particle size and polydispersity index (PDI) were determined by dynamic light scattering using Malvern laser particle size analyzer.
10 μL of the liposome solution was weighed, diluted to 1 mL with RNase-free deionized water, and added to the sample pool. Each sample was measured in triplicate. The measurement conditions were: […] scattering angle, and 25° C.

A short description of series [2]: Detection of encapsulation efficiency, drug loading concentration and total RNA concentration (RiboGreen). In kind it is physicochemical. The conditions noted are these: LNP formulation prepared from the cationic lipid. An excerpt: Encapsulation efficiency is a key quality attribute of liposomes, which refers to the percentage of drug content encapsulated in the lipid bimolecular layer accounting for the total drug dose and can reflect the degree of drug encapsulation in liposomes. The Chinese Pharmacopoeia stipulates that the encapsulation efficiency should generally not be less than 80%.
The drug loading amount is the ratio of the amount of drug in the liposome to the total amount of drug and carrier in the liposome. The drug loading amount directly affects the clinical application dose of the drug. […] The drug loading concentration is proportional to the drug loading amount, and the relative proportion of the drug loading concentrations can represent the relative proportion of the drug loading amounts. The relative ratio of the total RNA concentrations may represent the relative ratio of the amounts of mRNA carried by the LNP formulations.
1×TE buffer, 0.1% Triton X-100 buffer, RiboGreen reagent (1: 200) and mRNA standard stock solution were prepared.
An appropriate amount of the sample was added to an appropriate amount of 1×TE buffer, and the mixture was diluted to obtain a solution containing approximately […] sample per 1 mL. Then the sample was added to a 96-well plate, and 50 μL of the diluted test sample or the mRNA standard stock solution was added to each well, then 1×TE buffer and 0.1% Triton X-100 buffer were added. The sample was incubated at 37° C. for 10 minutes, and 100 μL RiboGreen reagent (1:200) was added to each well of the test sample in the 96-well plate. The sample was centrifugated, and the data were read using a microplate reader, and processed.

The subject of series [3] is 293T cells. Put plainly: Fluorescent detection of Fluc-mRNA (cell transfection efficiency of LNP formulations). In kind it is cell-based. Particulars: for Relative light unit (RLU): LNP with 0.3 μg Fluc-mRNA, 96-well plate, 24 hours. As to the method:
(§1) Seeding plate: The cells in the culture dish were digested and counted. Cells were spread in a 96-well plate at 10,000 cells per well and in a 12-well plate at 150,000 cells per well. Cells were cultured overnight until the cells adhered to the wall.
The corresponding reagents were added according to the instructions of the Gaussia Luciferase Assay Kit, and the fluorescence expression intensity of each well was detected by an IVIS fluorescence detection system.

Series [4] deals with 293T cells. As to the kind of experiment: Cell survival rate assay (CCK-8). The conditions noted are these: LNP with 1.5 μg Fluc-mRNA, 24 hours, CCK-8. In kind it is cell-based. As to the method: Cell recovery and passage: 293T cells were recovered, cultured in a culture dish, and passaged to the required number of cells.
as §1
An LNP formulation containing 1.5 μg of Fluc-mRNA (prepared according to example 4, the carrier components of the LNP formulation were cationic lipid, neutral lipid, structured lipid and polymer-conjugated lipid at a molar ratio of 49:10:39.5:1.5, wherein the cationic lipid was listed in Table 1) and the formulation of Lipofectamine 3000 were added to the cell culture medium of a 96-well plate, and further cultivated for 24 hours. 10 μL of CCK-8 solution was then added to each well, and the culture plate was incubated in an incubator for 1 hour. The absorbance at 450 nm was measured by a microplate reader.

In series [1], `CCCCCCCCCCOC(=O)CCCN(CCO)CCN(CCO)CCCC(=O)OC(CCCCCCCC)CCCCCCCC` [YK-408, heptadecan-9-yl 4-((2-hydroxyethyl)(2-((2-hydroxyethyl)(4-(decyloxy)-4-oxobutyl)amino)ethyl)amino)butyrate] returned a PDI of 16.2% and a Particle size of 136 nm. In addition, in series [2], the Drug loading concentration came out at 45.42 µg/mL, the Encapsulation efficiency was 86.6% and the “Total RNA concentration” value was 52.46 µg/mL. Also, in series [3], the “Relative light unit (RLU)” value came out at 1474136 RLU. Besides, in series [4], the Cell survival rate came out at 42.31%.

In series [1], `CCCCCCCCCCCOC(=O)CCCN(CCO)CCN(CCO)CCCCCC(=O)OCC(CCCCCCCC)CCCCCCCC` [YK-409, 2-octyldecyl 6-((2-hydroxyethyl)(2-((2-hydroxyethyl)(4-(undecyloxy)-4-oxobutyl)amino)ethyl)amino) hexanoate] came in with a PDI of 13.7% and a Particle size of 155 nm. In series [2], the Drug loading concentration was 34.14 µg/mL, the Encapsulation efficiency was 86.9% and the “Total RNA concentration” value is 39.27 µg/mL. Moreover, the “Relative light unit (RLU)” value in series [3] was found to be 669807 RLU. In series [4], the Cell survival rate stood at 46.11%.

In series [1], `CCCCCC(CC)OC(=O)CCCCCCCCN(CCO)CCN(CCO)CCCCCCCCC(=O)OC(CC)CCCCC` (stereo not drawn) [YK-404, di(octan-3-yl) 9, 9′-(ethane-1,2-diyl-bis((2-hydroxyethyl)azanediyl))dinonanoate] displayed a PDI of 4.2% and a Particle size of 142 nm. Besides, in series [2], the Drug loading concentration was 28.45 µg/mL, the Encapsulation efficiency is 75.3% and the “Total RNA concentration” value was determined as 33.41 µg/mL. In addition, the “Relative light unit (RLU)” value in series [3] is 7543 RLU. Besides, in series [4], the Cell survival rate was 42.12%.

In series [1], `CCCCCCCCCCCOC(=O)CCCN(CCO)CCN(CCO)CCCCCCOC(=O)CC(CCCCCC)CCCCCC` [YK-406, 6-((2-hydroxyethyl) (2-((2-hydroxyethyl)(4-(undecyloxy)-4-oxobutyl)amino)ethyl)amino)hexyl 3-hexylnonanoate] gave a PDI of 15.8% and a Particle size of 154 nm. Further, in series [2], the Drug loading concentration worked out at 30.19 µg/mL, the Encapsulation efficiency is on record as 87.8% and the “Total RNA concentration” value was found to be 34.41 µg/mL. In addition, the “Relative light unit (RLU)” value in series [3] came out at 78251 RLU. The Cell survival rate in series [4] is 24.96%.

As to `CCCCCCCCC(CCCCCCCC)OC(=O)CCCCCN(CCO)CCCCN(CCO)CCCCCC(=O)OC(CCCCCCCC)CCCCCCCC` [YK-420, di(heptadecan-9-yl) 6,6′-(butane-1,4-diylbis((2-hydroxyethyl)azanediyl))dihexanoate], in series [1], the PDI is reported as 14.2% and the Particle size is reported as 169 nm. Besides, in series [2], the Drug loading concentration was 35.87 µg/mL, the Encapsulation efficiency is 94.9% and the “Total RNA concentration” value is 37.81 µg/mL. Further, the “Relative light unit (RLU)” value in series [3] came out at 4019330 RLU. The same compound came in with a Cell survival rate in series [4] of 35.59%.

For the compound `CCCCCCCCCCOC(=O)CCCN(CCO)CCCN(CCO)CCCC(=O)OC(CCCCCCCC)CCCCCCCC` [YK-414, decyl 4-(3-((4-(heptadecan-9-yloxy)-4-oxobutyl)(2-hydroxyethyl)amino)propyl)(2-hydroxyethyl)aminobutyrate], the “Relative light unit (RLU)” value in series [3] came out at 444089 RLU. For the same compound, the Cell survival rate in series [4] is on record as 28.75%.

In series [1], `CCCCCCCCCCOC(=O)CCCCCN(CCO)CCCN(CCO)CCCCCC(=O)OCC(CCCCCCCC)CCCCCCCC` [YK-416, decyl 6-((2-hydroxyethyl)(3-((2-hydroxyethyl)(6-((2-octyldecyl)oxy)-6-oxohexyl)amino)propyl)amino)hexanoate] registered a PDI of 19.7% and a Particle size of 190 nm. Besides, in series [2], the Drug loading concentration worked out at 25.16 µg/mL, the Encapsulation efficiency is 79.6% and the “Total RNA concentration” value is 31.62 µg/mL. Moreover, the “Relative light unit (RLU)” value in series [3] turned out to be 3975264 RLU. In addition, in series [3] (ratio vs YK-417), the “cell transfection efficiency, times that of YK-417” value is given as 34. In series [4], this compound returned a Cell survival rate of 40.97%.

In the case of `CCCCCCCCCCOC(=O)CCCN(CCO)CCCCN(CCO)CCCCCC(=O)OC(CCCCCCCC)CCCCCCCC` [YK-421, heptadecan-9-yl 6-((4-((4-(decyloxy)-4-oxobutyl)(2-hydroxyethyl)amino)butyl)(2-hydroxyethyl)amino)hexanoate], in series [1], the PDI came out at 17.4% and the Particle size was 148 nm. Also, in series [2], the Drug loading concentration came out at 33.93 µg/mL, the Encapsulation efficiency turned out to be 83.1% and the “Total RNA concentration” value turned out to be 40.83 µg/mL. For the same compound, the “Relative light unit (RLU)” value in series [3] is 466616 RLU. In series [4], this compound displayed a Cell survival rate of 35.71%.

In the case of `CCCCCCCCCCOC(=O)CCCCCN(CCO)CCN(CCO)CCCCCC(=O)OCC(CCCCCCCC)CCCCCCCC` [YK-410, 2-octyldecyl 6-((2-hydroxyethyl)(2-((2-hydroxyethyl)(6-(decyloxy)-6-oxohexyl)amino)ethyl)amino)hexanoate], in series [1], the PDI is 15.5% and the Particle size is 163 nm. Further, in series [2], the Drug loading concentration was 29.48 µg/mL, the Encapsulation efficiency came out at 88.2% and the “Total RNA concentration” value worked out at 33.42 µg/mL. Moreover, the “Relative light unit (RLU)” value in series [3] is recorded as 407868 RLU. Further, the Cell survival rate in series [4] was 44.92%.

As to `CCCCCCCCC(CCCCCCCC)C(=O)OCCCCCCN(CCO)CCCN(CCO)CCCCCCOC(=O)C(CCCCCCCC)CCCCCCCC` [YK-412, (propane-1,3-diyl-bis((2-hydroxyethyl)azanediyl))-bis(hexane-6,1-diyl)bis(2-octyldecanoate)], the “Relative light unit (RLU)” value in series [3] was determined as 3371352 RLU. This compound also gave a Cell survival rate in series [4] of 54.14%.

In the case of `CCCCCCCCCCOC(=O)CCCN(CCO)CCN(CCO)CCCCCC(=O)OC(CCCCCCCC)CCCCCCCC` [YK-405, Heptadecan-9-yl 6-((2-hydroxyethyl)(2-((2-hydroxyethyl)(4-(decyloxy)-4-oxobutyl)amino)ethyl)amino)hexanoate], in series [1], the PDI stood at 4.3% and the Particle size amounted to 141 nm. Further, in series [2], the Drug loading concentration turned out to be 33.42 µg/mL, the Encapsulation efficiency is 83.2% and the “Total RNA concentration” value was 40.19 µg/mL. Besides, in series [3], the “Relative light unit (RLU)” value is reported as 3197780 RLU. Further, in series [4], the Cell survival rate turned out to be 41.86%.

With `CCCCCCCCCCCOC(=O)CCCN(CCO)CCCN(CCO)CCCCCC(=O)OC(CCCCCCCC)CCCCCCCC` [YK-413, heptadecan-9-yl 6-((2-hydroxyethyl)(3-((2-hydroxyethyl)(4-oxo-4-(undecyloxy)butyl)amino)propyl)amino)hexanoate], in series [1], the PDI amounted to 16.1% and the Particle size came out at 160 nm. Further, in series [2], the Drug loading concentration came to 23.63 µg/mL, the Encapsulation efficiency was 83.3% and the “Total RNA concentration” value amounted to 28.36 µg/mL. In series [3], the “Relative light unit (RLU)” value turned out to be 1377048 RLU. The Cell survival rate in series [4] was 47.20%.
